# Results reported in a melting point compilation (Tetko et al.; mined from patent text by program, amines drawn as free bases though some values may be those of a salt).
row,SMILES,melting point
1,COc1ccc(Nc2ccc(Nc3ccnc4cc(-c5cccc([N+](=O)[O-])c5)sc34)cc2)cc1,175 to 184 °C
2,COC(=O)c1ccc(CC(C)NCC(O)c2ccc(O)c(CO)c2)cc1C(=O)OC (stereo not drawn),124 to 129 °C
3,COc1c(Nc2ccccc2)ccc2ccccc12,43 to 45 °C
4,CSc1ccc(C=CC(=O)c2cccc([N+](=O)[O-])c2)cc1,150 °C
5,O=C(NN1CCNC1=O)Sc1ccccc1,154 to 159 °C
6,Cn1c2c(c3ccccc31)CCOC2(C)C,96 to 97 °C
7,O=S(=O)(Cl)c1ccc(-c2ccc(C(F)(F)F)cc2)s1,73 to 75 °C
8,CS(=O)(=O)CS(=O)(=O)Cl,109 to 111 °C
9,N#CC1CC2CCC(C1)N2Cc1ccccc1 (stereo not drawn),119 to 120 °C
10,CC(C)(COc1c(-c2ccccc2)c(=O)oc2ccccc12)CN1CCOCC1,167 °C
11,CCOC(=O)CCCCCCC(NC(N)=O)C(=O)OCC (stereo not drawn),79 to 80 °C
12,CCCCCCC1(c2ccccc2)CC(O)=CC(=O)O1 (stereo not drawn),119 to 120 °C
13,O=C(O)CCCOc1cccc(C2CCCCC2)c1,83 to 84 °C
14,COc1ccccc1-n1c(=O)[nH]c2c(C(N)=O)nc(-c3cccc(C(N)=O)c3)nc21,338 to 339 °C
15,CC(C)C(=O)O[C@@H](OC(=O)ON1C(=O)[C@H](OC(=O)c2ccccc2)[C@@H](OC(=O)c2ccccc2)C1=O)C(C)C,138 to 140 °C
16,Cc1ccc(-c2cc(C=O)ccn2)cc1,66 °C
17,N#Cc1ccc(C(=O)CNc2ccc(Br)cc2)cc1,154 to 157 °C
18,Cc1ccc(-c2c(-c3ccc(S(N)(=O)=O)cc3)cnn(-c3ccc(F)cc3)c2=O)cc1F,187 to 188 °C
19,CC(C)(O)c1ccc(CNC(=O)c2cccnc2Oc2ccc3ncoc3c2)cc1,92 to 94 °C
20,CCCCc1c(C(=O)c2ccc(O)cc2)[nH]c2ccc([N+](=O)[O-])cc12,181 °C
21,Cc1c(C(=O)C2CSC(c3cccnc3)N2)c2ccccc2n1C(=O)N(C)C (stereo not drawn),130 to 132 °C
22,N#Cc1cc(Cl)cc2c1OC(C(F)(F)F)C(C(=O)O)=C2 (stereo not drawn),238 to 240 °C
23,N#CNC(=NCCc1ccccc1Cl)c1cncc(NC(=O)c2ccccc2)c1,220 °C
24,CC(=O)N1CCC(CC(=O)O)CC1,124 °C
25,Fc1ccc(-c2ncn(C3CCNCC3)c2-c2ccnc(Oc3cccc(C(F)(F)F)c3)n2)cc1,137 to 138 °C

row,SMILES,melting point
1,CCCCCCCCCCCCCCCCCCNC(=O)OCC(CNS(=O)(=O)CCCI)n1nnnc1C (stereo not drawn),82.5 to 83.5 °C
2,O=C(Nc1cccc(C(F)(F)F)c1)c1cccnc1NCc1ccc(=O)[nH]c1,200 to 202 °C
3,Cc1ccc(C(=O)OC2CCN(Cc3ccccc3[N+](=O)[O-])CC2)cc1,86 to 87 °C
4,OC(CSCc1ccc(Cl)cc1)(Cn1cncn1)c1ccc(Cl)cc1Cl (stereo not drawn),106 to 107 °C
5,COCN1C(C)=C(C(=O)OCc2ccccc2)C(c2cccc(Cl)c2Cl)C(C(=O)OCc2ccccc2)=C1C,116 to 117 °C
6,O=C(c1ccccc1F)c1cc2c(c(Cl)c1Cl)OC(C(=O)O)C2 (stereo not drawn),180 to 181 °C
7,Cc1cc(C)cc(-c2[nH]c3ccc(C(C)(C)C(=O)O)cc3c2CCN(CCCCc2ccc(NS(C)(=O)=O)cc2)C(=O)OCc2ccccc2)c1,> 102 °C
8,COCCN1CCc2sc(Nc3ncc(F)c(C)n3)nc2-c2c[nH]nc21,261 to 263 °C
9,CC(C)(C)OC(=O)NCc1cccc(Cn2ccc(OCc3ccc(F)cc3)c(Br)c2=O)c1,136 to 138 °C
10,O=C(N(Cc1cccs1)CC1CCCCC1)C12CC3CC(CC(C3)C1)C2,112 to 116 °C
11,CCCOc1cc(C)c(Cl)c2c(=O)c3ccccc3sc12,116 to 118 °C
12,COc1cc(Nc2nc3cccc(-c4ccc(S(C)(=O)=O)cc4)c3o2)cc(OC)c1OC,205 to 207 °C
13,COc1cc2c3c(n(C)c(=O)c2cc1OC)-c1cc2c(cc1C3=CCCCCBr)OCO2,196 to 197 °C
14,CNC(=O)c1cccc(CN2CCN(c3nc(C)c(-c4cc(C)n[nH]4)s3)C2=O)c1,259 to 261 °C
15,O=C1c2ccccc2C(c2ccc(Cl)cc2)(c2c(O)cc(O)cc2O)N1Cc1ccc([N+](=O)[O-])cc1 (stereo not drawn),196 to 198 °C
16,Cc1ccc(C(=O)COc2ccc(Br)cc2CO)cc1,125 to 127 °C
17,COc1ccc(C(=O)Nc2ccccc2/C=C/c2ccnc(C)c2)cc1,183 to 184 °C
18,CCC(=Cc1cccc([N+](=O)[O-])c1)C(=O)Oc1ccc(OC)cc1,65 to 66 °C
19,CCCC1COC(Cn2nc[nH]c2=S)(c2ccc(Cl)cc2Cl)O1 (stereo not drawn),128 °C
20,N=C(N)Nc1ncc(Cl)c2ccc(S(=O)(=O)N(CCOC3CCCCO3)C3(C(=O)O)CCCC3)cc12 (stereo not drawn),281 to 289 °C
21,CCCCOc1ncc(I)cc1C(N)=S,140 to 148 °C
22,CCC(C)(C)N1C(=O)C2(COc3cc4c(cc32)OCCO4)c2ccccc21 (stereo not drawn),111 to 113 °C
23,COc1ccc(OCC2(CO)CC2)cc1,80 to 81 °C
24,CCc1c(C)nc2c(O)cccn2c1=O,128 °C
25,O=C(Nc1ccc(S(=O)(=O)Nc2ncccn2)cc1)c1ccccc1SSc1ccccc1C(=O)Nc1ccc(S(=O)(=O)Nc2ncccn2)cc1,280 °C

row,SMILES,melting point
1,CC(=O)Nc1ccn(C2CCC(COC(C)=O)O2)c(=O)n1 (stereo not drawn),210 to 211 °C
2,O=C1c2ccccc2C(=O)C1(O)c1cc(F)ccc1O,189 to 193 °C
3,CNC(=O)NC1(C)CCCc2ccccc21 (stereo not drawn),183 to 186 °C
4,O=C(O)c1ccc(OCc2cccc(Cl)c2)cn1,176 to 177 °C
5,Cc1c(C)c2c(c(C)c1O)CCC(C)(C(=O)NN(C)C)O2 (stereo not drawn),145 to 146 °C
6,CCc1cn2c(N)c(Cl)cc(C(=O)NC3CCN(CCCOC)CC3)c2n1,179 °C
7,O=C(Nc1ccc(N2CCN(C(=O)C(O)c3ccc(O)cc3Cl)CC2)nc1)Nc1ccccc1F (stereo not drawn),133 to 135 °C
8,COc1ccc(NS(=O)(=O)c2ccc([N+](=O)[O-])cc2OC)cc1,180 to 182 °C
9,COc1ccc(N2CCN(CCC3OCCc4c(C(N)=O)cccc43)CC2)cc1 (stereo not drawn),185 to 186 °C
10,CC(=O)c1ccc(S(=O)(=O)N(CCO)CCO)cc1,87.5 to 89.5 °C
11,C=C(Nc1nc(-c2ccccc2)c(-c2nc3ccccc3c(=O)n2-c2ccc(C(C)=O)cc2)s1)c1ccco1,232 to 233 °C
12,CONC(=N)NC(=O)Nc1c(C)cccc1C,78 to 80 °C
13,N#Cc1ccnc(C=Cc2ccccc2)n1,147 to 150 °C
14,CC(=O)n1c(=O)n(CCCN2CCN(C(c3ccccc3)c3ccccc3)CC2)c2ccccc21,124 °C
15,CCCCCCCCCCCC(=O)N[C@H](CC(=O)c1ccc(C)cc1)C(=O)OCC,60 to 60.5 °C
16,C[Si](C)(C)OC1(c2ccccc2F)C(=O)Nc2ccc(Cl)cc21 (stereo not drawn),125 to 127 °C
17,CCOC(=O)c1ccc(Cn2cnc3ncccc32)cc1,142 to 143 °C
18,C=CCOc1cccc(C(=O)c2ccccc2C(=O)OC)c1,50 to 52 °C
19,N#CC(c1ccnc(OCc2ccccc2)n1)c1nc2ccccc2s1 (stereo not drawn),196 to 198 °C
20,CSc1ccccc1-c1[nH]c2cccc3c2c1CCNC3=O,271 to 272 °C
21,CCOC(=O)C1C(C)=NC(N2CCCC2)=C(C(=O)OC(C)C)C1c1ccccc1C(F)(F)F (stereo not drawn),102 °C
22,CCOC(=O)c1cn(C)nc1Nc1ccc(C(F)(F)F)cc1N,162 °C
23,COC(=O)CCCc1cc2nc(Cl)ccc2n1S(=O)(=O)c1ccc2c(c1)CCN2C(C)=O,123 °C
24,CCNc1c(C)c(C)c2c(c1C)CC(C)(CN1CCC(c3ccccc3)CC1)O2 (stereo not drawn),84 to 86 °C
25,COc1cc(C(C)C)c(Oc2cnc(NC(=O)CNC3CCCC3)nc2N)cc1I,176 to 178 °C

row,SMILES,melting point
1,COc1cc(OC)c(NC(=S)Nc2ccccc2)cc1O,152 to 154 °C
2,FC(F)(F)c1ccn(-c2cc(N3CCOCC3)nc3ccccc23)n1,118 to 120 °C
3,Cc1nc(-c2ccc3c(c2)CCCC3)c(Br)o1,97 to 98 °C
4,O=COC1(N=NC2(OC=O)CCCCC2)CCCCC1,97 to 99.5 °C
5,COc1ccc2nc3ccc(C(C)=O)cn3c(=O)c2c1,194 to 196 °C
6,N#Cc1cnn(-c2cc(Cl)c(Cl)c(Cl)c2Cl)c1N,168 to 169 °C
7,CCn1cc(-c2ccc([C@H](C)N3CC[C@](CC(C)(C)O)(c4ccc(F)cc4)OC3=O)cc2)ccc1=O,172 to 174 °C
8,COc1cccc(CC(=O)O)c1OCCCc1cn(-c2ncc(Cl)cc2Cl)nc1C(C)C,105 to 106 °C
9,CSc1ccc(CN(C)CCOc2ccc(NC(=O)c3cccc4c(=O)c5ccccc5[nH]c34)cc2)cc1,150 °C
10,CS(=O)(=O)N1CCCn2c(nc3c(N)nc4cc(-c5cccnc5)ccc4c32)C1,302 °C
11,COc1cc(Cl)cnc1OCC#Cc1ccc(Cl)nc1,94 °C
12,CCOC(=O)COc1ccc2c(c1)CC(CNC(=O)OC(C)(C)C)C2 (stereo not drawn),56 to 63 °C
13,CC(CC(=O)O)CC(=O)Nc1cccc(-c2ccnc3c(C(=O)c4cccs4)cnn23)c1 (stereo not drawn),135 to 136 °C
14,CCCn1c(=O)c2c(nc(/C=C/c3ccc(OC)c(OC(C)=O)c3)n2C)n(CCC)c1=O,201 to 202 °C
15,C=CCSc1c(O)cc(C)oc1=O,98 to 98.5 °C
16,Cc1cn(-c2nccc3[nH]c(=O)ccc23)cn1,257 to 259 °C
17,CC(=NC#N)N[C@@H]1c2cc(C#N)ccc2OC(C)(C)[C@H]1OS(C)(=O)=O (relative stereo),202 to 204 °C
18,COc1cccc(Oc2cc(-c3ccc(C(F)(F)F)cc3)ccn2)c1,77.5 to 79.6 °C
19,O=C1CC2C(CC(OC(=O)c3ccccc3)C2C=CC(O)C2(F)CCCC2)O1 (stereo not drawn),73 to 74 °C
20,CS(=O)(=O)c1ccc(-c2cnn(Cc3c(F)c(F)c(F)c(F)c3F)c(=O)c2-c2ccc(F)cc2)cc1,115 to 116 °C
21,O=C(O)CCc1cc2cc(Cl)ccc2n1S(=O)(=O)c1cccc2ccccc12,165 to 175 °C
22,O=C(O)c1cnc(Cl)cc1C(F)(F)F,115 to 117 °C
23,O=C1N(c2ccc(Cl)cc2Cl)Cc2cnc(Nc3ccccc3)nc2N1c1cccc(CCN2CCNCC2)c1,126 °C
